# The source made the active and inactive calls. The rule behind the calls is not given here.
# Key:
# A2780 [1] = test: Induction of apoptosis in human A2780 cells assessed as caspase-3/7 activation at 0.06 uM after 24 hrs by using Apo-ONE homogeneous caspase-3/7 kit; format: functional, cell-based
# HCT-116 = test: Selectivity ratio of IC50 for human WI38 cells to IC50 for human HCT116 cells; format: functional
# MDA-MB-231 = test: Ratio of ON01910 IC50 to compound IC50 for ER negative human MDA-MB-231 cells; format: functional
# [2] = Cmax in mouse at 40 mg/kg, po after 24 hrs; format: ADME, organism-based; set-up: dose 40 mg/kg, route oral; conditions: in vivo
# MCF7 [3] = test: Selectivity ratio of IC50 for human WI38 cells to IC50 for ER positive human MCF7 cells; format: functional
# PANC-1 [4] = test: Selectivity ratio of IC50 for human WI38 cells to IC50 for human PANC1 cells; format: functional
# MCF7 [5] = test: Ratio of ON01910 IC50 to compound IC50 for ER positive human MCF7 cells; format: functional
# PANC-1 [6] = test: Ratio of ON01910 IC50 to compound IC50 for human PANC1 cells; format: functional
# DU-145 = test: Ratio of ON01910 IC50 to compound IC50 for AR negative human DU145 cells; format: functional
# A2780 [7] = test: Selectivity ratio of IC50 for human WI38 cells to IC50 for human A2780 cells; format: functional
# [8] = AUC (0 to t) in mouse at 10 mg/kg, po after 24 hrs; format: ADME, organism-based; set-up: time < 24 hr, dose 10 mg/kg, route oral; conditions: plasma
# A2780 [9] = test: Induction of apoptosis in human A2780 cells assessed as caspase-3/7 activation at 1 uM after 24 hrs by using Apo-ONE homogeneous caspase-3/7 kit; format: functional, cell-based
# [10] = Elimination half life in mouse at 10 mg/kg, po after 24 hrs; format: ADME, organism-based; set-up: dose 10 mg/kg, route oral; conditions: in vivo, read-out: beta t1/2 (converted)
AUC(0-t) at 24 h [8] [µM·h],half-life [10] [h],SMILES,Activity (A2780 [1]),Ratio IC50 (HCT-116),Ratio IC50 (MDA-MB-231),Cmax [2] [µM],Ratio IC50 (MCF7 [3]),Ratio IC50 (PANC-1 [4]),Ratio IC50 (MCF7 [5]),Ratio IC50 (PANC-1 [6]),Ratio IC50 (DU-145),Ratio IC50 (A2780 [7]),Activity (A2780 [9])
–,–,COc1cc(OC)c(/C=C/S(=O)(=O)Cc2ccc(OC)c(N)n2)c(OC)c1,Active,>1400,10,2.5,>1400,>1400,10,10,10,>1400,–
5.6,4.6,COc1cc(OC)c(/C=C/S(=O)(=O)Cc2ccc(OC)c(NS(C)(=O)=O)n2)c(OC)c1,–,–,–,–,–,–,–,–,–,–,Active
